Test results taken from ChEMBL document CHEMBL4330066, “Carbohydrate-naphthalene diimide conjugates as potential antiparasitic drugs: Synthesis, evaluation and structure-activity studies” (Eur J Med Chem, 2019).
Calls of active or inactive are those of the source. No cut-off for these calls is given here.

Assays:
[1] = Cytotoxicity against human THP1 cells; assay type: cell-based; settings: THP-1 cells, read-out: TC50 (the source's name)
[2] = Selectivity index, ratio of TC50 for human THP1 cells to IC50 for Leishmania major MHOM/IL/80/Friedlin amastigotes; assay type: toxicity; settings: THP1 cells versus Leishmania major amastigotes, read-out: Selectivity Index
[3] = Selectivity index, ratio of IC50 for human MRC5 cells to IC50 for Trypanosoma brucei Lister 427, antigenic type MiTat 1.2, clone 221a; assay type: toxicity; settings: MRC5 cells versus Trypanosoma brucei Lister 427, read-out: Ratio IC50
Trypanosoma brucei [4] = assay: Trypanocidal activity against Trypanosoma brucei Lister 427, antigenic type MiTat 1.2, clone 221a after 72 hrs by alamarBlue assay; assay type: functional, organism-based; settings: Lister 427, 72 h
Leishmania major [5] = assay: Leishmaniacidal activity against Leishmania major MHOM/IL/80/Friedlin amastigotes infected in human THP1 cells after 72 hrs by luciferase luminescence assay; assay type: functional, organism-based; settings: THP-1, 72 h
Leishmania major [6] = assay: Leishmaniacidal activity against Leishmania major MHOM/IL/80/Friedlin promastigotes after 72 hrs by MTT assay; assay type: functional, organism-based
MRC5 = assay: Cytotoxicity against human MRC5 cells assessed as reduction in cell viability after 48 hrs by MTT assay; assay type: cell-based; settings: MRC5, 48 h
Trypanosoma brucei [7] = assay: Stabilization of 5'-FAM /3'-Tamra labelled Trypanosoma brucei F21T G-quadruplex DNA in presence of 1 x 10^-5 M dsDNA competitior by FRET melting assay
[8] = Drug uptake in Trypanosoma brucei at 5 x 10^-6 M at 37 degC incubated for 90 mins by flow cytometric analysis; assay type: ADME; settings: 1.5 h, 5 µM
Trypanosoma brucei [9] = assay: Binding affinity to Trypanosoma brucei EBR1 G-quadruplex DNA assessed as association constant by fluorescence titration assay
[10] = Drug localization in nucleus of Trypanosoma brucei at 5 x 10^-6 M after 4 hrs by DAPI staining-based fluorescence confocal microscopy method; assay type: ADME, subcellular; settings: 5 µM
Trypanosoma brucei [11] = assay: Stabilization of Trypanosoma brucei EBR1 G-quadruplex DNA up to 30 x 10^-6 M by CD titration assay
[12] = Drug localization in kinetoplast of Trypanosoma brucei at 5 x 10^-6 M after 4 hrs by DAPI staining-based fluorescence confocal microscopy method; assay type: ADME, subcellular; settings: 5 µM
Trypanosoma brucei [13] = assay: Stabilization of 5'-FAM /3'-Tamra labelled Trypanosoma brucei EBR1-FT G-quadruplex DNA at 2 x 10^-6 M by FRET melting assay
Erythrocyte = assay: Hemolytic activity in mouse RBC after 1 hr; assay type: ADME, cell-based
Quadruplex DNA [14] = assay: Stabilization of 22AG telomeric G-quadruplex DNA (unknown origin) assessed as reduction in emission at 8 uM by fluorescence absorption emisssion spectroscopy method; assay type: nucleic-acid assay; set-up: scale not given: the % may be the effect or the level left
[15] = Drug uptake in Trypanosoma brucei assessed as reduction in intracellular fluorescence at 5 x 10^-6 M at 4 degreeC incubated for 90 mins by flow cytometric analysis relative to drug uptake at 37 degC; assay type: ADME, cell-based; settings: 1.5 h, 5 µM
Trypanosoma brucei [16] = assay: Stabilization of 5'-FAM /3'-Tamra labelled Trypanosoma brucei F21T G-quadruplex DNA at 2 x 10^-6 M by FRET melting assay
Trypanosoma brucei [17] = assay: Stabilization of 5'-FAM /3'-Tamra labelled Trypanosoma brucei EBR1-FT G-quadruplex DNA in presence of 1 x 10^-5 M dsDNA competitior by FRET melting assay relative to control
[18] = Drug uptake in Trypanosoma brucei assessed as reduction in intracellular fluorescence at 5 x 10^-6 M at 4 to 37 degreeC by flow cytometric analysis; assay type: ADME, cell-based; settings: 5 µM, TDE = time-dependent effect
Trypanosoma brucei [19] = assay: Stabilization of 5'-FAM /3'-Tamra labelled Trypanosoma brucei F21T G-quadruplex DNA in presence of 3 x […] M dsDNA competitior by FRET melting assay
Quadruplex DNA [20] = assay: Stabilization of 22AG telomeric G-quadruplex DNA (unknown origin) assessed as red shift at 8 uM by fluorescence absorption emisssion spectroscopy method; assay type: nucleic-acid assay
Quadruplex DNA [21] = assay: Binding affinity to 22AG telomeric G-quadruplex DNA (unknown origin) assessed as association constant by fluorescence titration assay; assay type: nucleic-acid assay
Quadruplex DNA [22] = assay: Stabilization of 22AG telomeric G-quadruplex DNA (unknown origin) assessed as reduction in emission at 8 uM by fluorescence absorption emisssion spectroscopy method relative to control; assay type: nucleic-acid assay; set-up: scale not given: the % may be the effect or the level left
Trypanosoma brucei [23] = assay: Stabilization of 5'-FAM /3'-Tamra labelled Trypanosoma brucei EBR1-FT G-quadruplex DNA assessed as change in melting temperature at 0.5 x 10^-6 M by FRET melting assay
Trypanosoma brucei [24] = assay: Stabilization of 5'-FAM /3'-Tamra labelled Trypanosoma brucei EBR1-FT G-quadruplex DNA assessed as impeding of completing melting of DNA at 2 x 10^-6 M by FRET melting assay
Trypanosoma brucei [25] = assay: Stabilization of 5'-FAM /3'-Tamra labelled Trypanosoma brucei EBR1-FT G-quadruplex DNA assessed as change in melting temperature at 5 x 10^-7 M by FRET melting assay
Trypanosoma brucei [26] = assay: Stabilization of 5'-FAM /3'-Tamra labelled Trypanosoma brucei F21T G-quadruplex DNA assessed as change in melting temperature at 5 x 10^-7 M by FRET melting assay

SMILES | CC50 [1] [nM] | selectivity ratio [2] | selectivity ratio [3] | IC50 (Trypanosoma brucei [4]) [nM] | IC50 (Leishmania major [5]) [nM] | IC50 (Leishmania major [6]) [nM] | IC50 (MRC5) [nM] | Activity (Trypanosoma brucei [7]) | Ka (Trypanosoma brucei [9]) | Drug uptake [10] | Activity (Trypanosoma brucei [11]) | Drug uptake [12] | Activity (Trypanosoma brucei [13]) | Activity (Trypanosoma brucei [16]) | Activity (Trypanosoma brucei [17]) | Activity (Trypanosoma brucei [19]) | Activity (Quadruplex DNA [20]) | Ka (Quadruplex DNA [21]) | other results
CN(C)CCCN1C(=O)c2ccc3c4c(c(NCCCn5cc(CO[C@H]6O[C@H](CO)[C@@H](O)[C@H](O)[C@@H]6O)nn5)cc(c24)C1=O)C(=O)N(CCCN(C)C)C3=O | 1780 | 3.8 | 1.1 | 210 | 470 | 2410 | 230 | – | – | – | – | – | – | – | – | – | – | – | –
CN(C)CCCN1C(=O)c2ccc3c4c(c(NCCCn5cc(CCO[C@@H]6O[C@H](CO)[C@@H](O)[C@H](O)[C@H]6O)nn5)cc(c24)C1=O)C(=O)N(CCCN(C)C)C3=O | 2180 | 3 | 7.5 | 60 | 720 | 70 | 450 | Active | 1.2 ×10⁶ /M | Active | Active | Active | Active | Active | Active | inactive | 10 nm | 9.2 ×10⁵ /M | Drug uptake [8]: Active; Activity (Erythrocyte): Non-Toxic; Activity (Quadruplex DNA [14]): 10%; Drug uptake [15]: 36%; Drug uptake [18]: Tde
CN(C)CCCN1C(=O)c2ccc3c4c(c(NCCCn5cc(CO[C@@H]6O[C@H](CO)[C@@H](O[C@@H]7O[C@H](CO)[C@H](O)[C@H](O)[C@H]7O)[C@H](O)[C@H]6O)nn5)cc(c24)C1=O)C(=O)N(CCCN(C)C)C3=O | 9290 | 2 | 3.4 | 370 | 4720 | 1030 | 1240 | – | – | – | – | – | – | – | – | – | – | – | –
CN(C)CCCc1cc2c3c(c(NCCCn4cc(COCCOCCOCCO[C@@H]5O[C@H](CO)[C@@H](O)[C@H](O)[C@H]5O)nn4)cc4c3c1C(=O)N(CCCN(C)C)C4=O)C(=O)N(CCCN(C)C)C2=O | > 10000 | > 2.8 | 25.3 | 350 | 3590 | 270 | 8850 | – | – | – | – | – | – | – | – | – | – | – | –
CN(C)CCCN1C(=O)c2ccc3c4c(c(NCCCn5cc(COCCOCCOCCO[C@@H]6O[C@H](CO)[C@@H](O[C@@H]7O[C@H](CO)[C@H](O)[C@H](O)[C@H]7O)[C@H](O)[C@H]6O)nn5)cc(c24)C1=O)C(=O)N(CCCN(C)C)C3=O | 5710 | 10.8 | 6 | 40 | 530 | 170 | 240 | Active | 1.1 ×10⁶ /M | Active | Active | Active | Active | Active | Active | inactive | Active | 8.4 ×10⁵ /M | –
CN(C)CCCN1C(=O)c2ccc3c4c(c(NCCCn5cc(CCO[C@@H]6O[C@H](CO)[C@@H](O[C@@H]7O[C@H](CO)[C@H](O)[C@H](O)[C@H]7O)[C@H](O)[C@H]6O)nn5)cc(c24)C1=O)C(=O)N(CCCN(C)C)C3=O | > 10000 | > 2.1 | 3.5 | 330 | 4710 | 1930 | 1170 | – | – | – | – | – | – | – | – | – | – | – | –
CN(C)CCCc1cc2c3c(c(NCCCn4cc(CO[C@@H]5O[C@H](CO)[C@@H](O)[C@H](O)[C@H]5O)nn4)cc4c3c1C(=O)N(CCCN(C)C)C4=O)C(=O)N(CCCN(C)C)C2=O | > 10000 | > 3.8 | 5.7 | 150 | 2630 | 490 | 850 | – | – | – | – | – | – | – | – | – | – | – | –
CN(C)CCCN1C(=O)c2ccc3c4c(c(NCCCn5cc(CCO[C@@H]6O[C@H](CO)[C@@H](O[C@H]7O[C@H](CO)[C@@H](O)[C@H](O)[C@H]7O)[C@H](O)[C@H]6O)nn5)cc(c24)C1=O)C(=O)N(CCCN(C)C)C3=O | 1520 | 3.5 | 1.7 | 130 | 430 | 4680 | 220 | – | – | – | – | – | – | – | – | – | – | – | –
CN(C)CCCc1cc2c3c(c(NCCCn4cc(CCO[C@@H]5O[C@H](CO)[C@@H](O)[C@H](O)[C@H]5O)nn4)cc4c3c1C(=O)N(CCCN(C)C)C4=O)C(=O)N(CCCN(C)C)C2=O | – | – | 30.2 | 240 | – | 9770 | 7250 | Active | 1 ×10⁷ /M | Active | Active | Active | – | inactive | inactive | inactive | – | 4.4 ×10⁶ /M | Activity (Quadruplex DNA [22]): 40%; ΔTm (Trypanosoma brucei [23]): 24 °C; Activity (Trypanosoma brucei [24]): Active; Activity (Erythrocyte): Non-Toxic; ΔTm (Trypanosoma brucei [25]): 11.5 °C; ΔTm (Trypanosoma brucei [26]): 22.1 °C
CN(C)CCCN1C(=O)c2ccc3c4c(c(NCCCn5cc(COCCOCCOCCO[C@@H]6O[C@H](CO)[C@@H](O)[C@H](O)[C@H]6O)nn5)cc(c24)C1=O)C(=O)N(CCCN(C)C)C3=O | 1860 | 3.9 | 1.6 | 440 | 480 | 480 | 730 | Active | 6.9 ×10⁵ /M | Active | Active | Active | Active | Active | Active | inactive | Active | 4.8 ×10⁵ /M | –
